Laboratory results taken from EPA's ToxValDB 9.5.
Where “and” joins values, the source holds several entries; their conditions need not be identical. Equal values may be shown once.

Tests used:
Mus musculus [1] = details: for NOAEL / LOAEL: subchronic, duration: 30 days
Rattus norvegicus [2] = details: short-term
Rattus norvegicus [3] = details: short-term, duration: 28 days, oral, gavage, CD(SD), Clinical Observation: Decreased locomotor activity Soiled fur Soft stool + Body Weight Changes: decrease + Food Consumption: decrease + …
Mus musculus [4] = details: oral
Rattus norvegicus [5] = details: for LD50: oral
Oryctolagus sp. = details: dermal, New Zealand; for LD50: acute
Rattus norvegicus [6] = details: subchronic; duration: 8 weeks; oral; gavage; M; Sprague-Dawley; reproductive
Rattus norvegicus [7] = details: oral
Canidae = details: chronic, oral, diet, M/F, Dog Other
[8] = acute, duration: 1 hours, oral, gavage, M, inhibition of acetic acid-induced writhing response
[9] = duration: 3 days, injection, subcutaneous, F, Sprague-Dawley, uterus: absolute blotted uterine weight
[10] = duration: 4 days, oral, gavage, F, Wistar, female reproductive system: vaginal cornification + uterus: uterine wet weight (relative)
[11] = duration: 4 days, oral, gavage, F, Wistar, uterus: uterine dry weight (relative)
[12] = duration: 10 days, oral, gavage, M, BrlHan:WIST, body weight + spontaneous locomotion
[13] = duration: 10 days, oral, gavage, M, BrlHan:WIST, male accessory sex gland: relative bulbourethral gland weight in the presence of TP
[14] = duration: 28 days, oral, gavage, F, Crj:CD, kidney: kidney weight
[15] = duration: 28 days, oral, gavage, F, Crj:CD, liver: liver weight + thymus: serum T3
[16] = duration: 28 days, oral, gavage, M, Crj:CD, body weight + brain: brain weight + food consumption + liver: liver weight + testis: testes weight + thymus: serum T3 + thymus: serum T4 + …
[17] = oral, gavage, F, C57BL/6, Cardiovascular: Heart: Heart Weight, Relative + Hepatic: Liver: Liver Weight, Relative + Immune: Multi-Organ: Immunoglobulin M (IgM), Serum…
[18] = oral, gavage, M, C57BL/6, Cardiovascular: Heart: Heart Weight, Relative + Hepatic: Liver: Liver Weight, Relative + Immune: Multi-Organ: Immunoglobulin M (IgM), Serum…
[19] = duration: 2 years, liver toxicity
[20] = duration: 1 years, Liver effects + organ weight changes
[21] = oral, gavage, M, C57BL/6, Hepatic: Liver: Liver Weight, Relative

`Oc1ccc(Cc2ccc(O)cc2)cc1` [Bis(4-hydroxyphenyl)methane] was tested. Which LOEL (Mus musculus [1]; acute, duration: 1 hours, dermal, M, inhibition of arachidonic acid-induced ear edema) did it give?
The LOEL was 0.25 mg/ear.

And the LOEL (Mus musculus [1]; [8])?
Its LOEL is 25 mg/kg-day.

And the NOEL (Mus musculus [1]; [8])?
The NOEL was 12.5 mg/kg-day.

And the LOEL (Rattus norvegicus [2]; duration: 3 days, injection, subcutaneous, F, Crj:CD, uterus: uterine dry weight (absolute) + uterus: uterine dry weight (relative) + uterus: uterine wet weight (absolute) + uterus: uterine wet …)?
Its LOEL is 100 mg/kg-day.

What about the LOEL (Rattus norvegicus [2]; [9]) of the same compound?
The LOEL was 200 mg/kg-day.

What about the NOEL (Rattus norvegicus [2]; [9]) of the same compound?
Its NOEL is 20 mg/kg-day.

And the LOEL (Rattus norvegicus [2]; [10])?
Its LOEL is 100 mg/kg-day.

And the NOEL (Rattus norvegicus [2]; [10])?
Its NOEL is 50 mg/kg-day.

And the LOEL (Rattus norvegicus [2]; [11])?
The LOEL was 200 mg/kg-day.

And the NOEL (Rattus norvegicus [2]; [11])?
The NOEL was 100 mg/kg-day.

And the LOEL (Rattus norvegicus [2]; duration: 5 days, injection, subcutaneous, F, Wistar, uterus: uterine dry weight (relative))?
The LOEL was 0.5 mg/day.

What about the LOEL (Rattus norvegicus [2]; [12]) of the same compound?
Its LOEL is 1000 mg/kg-day.

What about the NOEL (Rattus norvegicus [2]; [12]) of the same compound?
The NOEL was 200 mg/kg-day.

What about the NOEL (Rattus norvegicus [2]; duration: 10 days, oral, gavage, M, BrlHan:WIST, body weight in the presence of TP + body weight the absence of TP + male accessory sex gland: relative bulbourethral gland weight in the …) of the same compound?
The NOEL was 1000 mg/kg-day.

What about the NOEL (Rattus norvegicus [2]; duration: 10 days, oral, gavage, M, BrlHan:WIST, male accessory sex gland: BC/LA weight (relative) + male accessory sex gland: Cowper's gland weight (relative) + male accessory sex gland: …) of the same compound?
The NOEL was 1000 mg/kg-day.

And the LOEL (Rattus norvegicus [2]; [13])?
Its LOEL is 200 mg/kg-day.

What about the NOEL (Rattus norvegicus [2]; [13]) of the same compound?
The NOEL was 50 mg/kg-day.

What about the LOEL (Rattus norvegicus [2]; duration: 28 days, oral, gavage, F, Crj:CD, body weight + brain: brain weight + food consumption + thymus: serum T4) of the same compound?
The LOEL was 20 mg/kg-day.

What about the LOEL (Rattus norvegicus [2]; [14]) of the same compound?
Its LOEL is 100 mg/kg-day.

What about the NOEL (Rattus norvegicus [2]; [14]) of the same compound?
Its NOEL is 20 mg/kg-day.

What about the LOEL (Rattus norvegicus [2]; [15]) of the same compound?
The LOEL was 500 mg/kg-day.

What about the NOEL (Rattus norvegicus [2]; [15]) of the same compound?
Its NOEL is 100 mg/kg-day.

What about the LOEL (Rattus norvegicus [2]; [16]) of the same compound?
The LOEL was 500 mg/kg-day.

What about the NOEL (Rattus norvegicus [2]; [16]) of the same compound?
Its NOEL is 100 mg/kg-day.

And the NOEL (Rattus norvegicus [3]; F)?
Its NOEL is less than 20 mg/kg-day.

What about the NOEL (Rattus norvegicus [3]; M) of the same compound?
Its NOEL is 20 mg/kg-day.

What does the source list for `O=C(O)C(F)(F)C(F)(F)OC(F)(F)F` [Perfluoro-3-methoxypropanoic acid]?
NOAEL (Mus musculus [1]; [17]): 50 mg/kg-day; NOAEL (Mus musculus [1]; [18]): 50 mg/kg-day

What does the source list for `[S-]c1nc2ccccc2s1.[S-]c1nc2ccccc2s1.[Zn+2]` [Zinc 2-mercaptobenzothiazolate]?
NOAEL (Mus musculus [4]; reproduction developmental, duration: 18 months): 1000 mg/kg-day; LD50 (Rattus norvegicus [5]; acute, Sprague-Dawley): 5500 mg/kg; LD50 (Rattus norvegicus [5]; acute, gavage, Sprague-Dawley): 7500 mg/kg; LD50 (Oryctolagus sp.): > 2000 mg/kg; LD50 (Oryctolagus sp.; occlusive): > 7940 mg/kg

Which results are given for `Brc1ccc(Oc2ccc(Br)cc2Br)c(Br)c1` [2,2',4,4'-Tetrabromodiphenyl ether]?
LOEL (Mus musculus [1]; developmental, oral, M/F, C57BL/6, generation: F1, F1: Morris water maze (swim speed, first trial) + F1: Morris water maze (swim speed, last trial) + F1: Morris water maze (swim speed, middle…): 1 mg/kg-day; LOEL (Mus musculus [1]; reproduction developmental, oral, F, C57BL/6, generation: P0, P0: Morris water maze (latency, first trial)): 0.03 mg/kg-day; LOAEL (Rattus norvegicus [6]): 0.001 mg/kg-day

With `Oc1ccccc1` [Phenol] as the compound, how does the NOAEL (Rattus norvegicus [7]; developmental, gavage, Fetus: Decreased weight) read?
The NOAEL was 60 mg/kg-day.

With `CCOP(=S)(OCC)SCSCC` [Phorate] as the compound, how does the NOAEL (Rattus norvegicus [7]; subchronic, duration: 13 weeks, diet, Cholinesterase: Inhibition) read?
The NOAEL was 0.033 mg/kg-day.

For `COc1nn(CSP(=S)(OC)OC)c(=O)s1` [Methidathion], which LEL (Canidae; [19]) is on record?
The LEL was 0.4 mg/kg-day.

What about the NOEL (Canidae; [19]) of the same compound?
The NOEL was 0.1 mg/kg-day.

What does the source list for `Clc1ccccc1-c1nnc(-c2ccccc2Cl)nn1` [Clofentezine]?
LEL (Canidae; [20]): 25 mg/kg-day; NOEL (Canidae; [20]): 1.25 mg/kg-day

For `Oc1cc(Cl)ccc1Cl` [2,5-Dichlorophenol], which LD50 (Mus musculus [4]; acute, gavage, CD1) is on record?
The LD50 was ≥ 946 mg/kg and ≤ 1600 mg/kg.

And the LC50 (Rattus norvegicus [5]; acute, inhalation, Spartan)?
Its LC50 is greater than 185000 mg/m3.

And the LD50 (Rattus norvegicus [5]; acute, gavage, Wistar)?
Its LD50 is 2480 mg/kg.

What about the LOAEL (Rattus norvegicus [5]; reproduction developmental, duration: 4 weeks, inhalation, Sprague-Dawley) of the same compound?
The LOAEL was 0.1 mg/L.

And the LD50 (Oryctolagus sp.; occlusive)?
The LD50 was greater than 8000 mg/kg.

What about the LOAEL (Oryctolagus sp.; reproduction developmental, duration: 21 days, non-occlusive) of the same compound?
Its LOAEL is 1 mg/kg-day.

With `O=C(O)C(F)(F)C(F)(F)C(F)(F)OC(F)(F)F` [Perfluoro(4-methoxybutanoic acid)] as the compound, how does the LOAEL (Mus musculus [1]; [17]) read?
The LOAEL was 50 mg/kg-day.

And the LOAEL (Mus musculus [1]; [18])?
The LOAEL was 50 mg/kg-day.

And the NOAEL (Mus musculus [1]; [18])?
Its NOAEL is 5 mg/kg-day.

What about the NOAEL (Mus musculus [1]; oral, gavage, M, C57BL/6, Cardiovascular: Heart: Heart Weight, Relative + Immune: Multi-Organ: Immunoglobulin M (IgM), Serum + Immune: Multi-Organ: Natural Killer (NK…) of the same compound?
The NOAEL was 50 mg/kg-day.

What about the LOAEL (Mus musculus [1]; [21]) of the same compound?
The LOAEL was 50 mg/kg-day.

And the NOAEL (Mus musculus [1]; [21])?
Its NOAEL is 5 mg/kg-day.
